Patent US11046696B2, “Fused pyrimidine compound or salt thereof” (TAIHO PHARMACEUTICAL CO., LTD., priority 2016, dated 2021)

experiment: Evaluation of stability in liver microsome; settings: mouse liver microsome, 1 μM, 37° C. for 30 minutes

Row | SMILES | Remaining (%)
1 | COCc1ccc(NC(=O)c2c(OCC(C)C)n(C3(C)CC3)c3ncnc(N)c23)cc1 [Example 99, 4-amino-6-isobutoxy-N-(4-(methoxymethyl)phenyl)-7-(1-methylcyclopropyl)-7H-pyrrolo[2,3-d]pyrimidine-5-carboxamide] | 51
2 | COCc1ccc(NC(=O)c2c(OCC(C)OC)n(C3(C)CC3)c3ncnc(N)c23)cc1 (stereo not drawn) [Example 100, 4-amino-N-(4-(methoxymethyl)phenyl)-6-(2-methoxypropoxy)-7-(1-methylcyclopropyl)-7H-pyrrolo[2,3-d]pyrimidine-5-carboxamide] | 76
3 | COCc1ccc(NC(=O)c2c(OCC3CCOC3)n(C3(C)CC3)c3ncnc(N)c23)cc1 (stereo not drawn) [Example 101, 4-amino-N-(4-(methoxymethyl)phenyl)-7-(1-methylcyclopropyl)-6-((tetrahydrofuran-3-yl)methoxy)-7H-pyrrolo[2,3-d]pyrimidine-5-carboxamide] | 68
4 | COCc1ccc(NC(=O)c2c(OCC3CCCCO3)n(C3(C)CC3)c3ncnc(N)c23)cc1 (stereo not drawn) [Example 102, 4-amino-N-(4-(methoxymethyl)phenyl)-7-(1-methylcyclopropyl)-6-((tetrahydro-2H-pyran-2-yl)methoxy)-7H-pyrrolo[2,3-d]pyrimidine-5-carboxamide] | 60
5 | COCc1ccc(NC(=O)c2c(C#CCC3(O)CCC3)n(C3(C)CC3)c3ncnc(N)c23)cc1 [Example 103, 4-amino-6-(3-(1-hydroxycyclobutyl)prop-1-yn-1-yl)-N-(4-(methoxymethyl)phenyl)-7-(1-methylcyclopropyl)-7H-pyrrolo[2,3-d]pyrimidine-5-carboxamide] | 60
6 | COCc1ccc(NC(=O)c2c(C#CC(O)C3CC3)n(C3(C)CC3)c3ncnc(N)c23)cc1 (stereo not drawn) [Example 104, 4-amino-6-(3-cyclopropyl-3-hydroxyprop-1-yn-1-yl)-N-(4-(methoxymethyl)phenyl)-7-(1-methylcyclopropyl)-7H-pyrrolo[2,3-d]pyrimidine-5-carboxamide] | 52
7 | COCc1ccc(NC(=O)c2c(C#CCN3CCCCC3)n(C3(C)CC3)c3ncnc(N)c23)cc1 [Example 105, 4-amino-N-[4-(methoxymethyl)phenyl]-7-(1-methylcyclopropyl)-6-(3-(piperidin-1-yl)prop-1-yn-1-yl)-7H-pyrrolo[2,3-d]pyrimidine-5-carboxamide] | 52
8 | COCc1ccc(NC(=O)c2c(/C=C/CO)n(C3(C)CC3)c3ncnc(N)c23)cc1 [Example 109, (E)-4-amino-6-(3-hydroxyprop-1-en-1-yl)-N-(4-(methoxymethyl)phenyl)-7-(1-methylcyclopropyl)-7H-pyrrolo[2,3-d]pyrimidine-5-carboxamide] | 68
9 | COCc1ccc(NC(=O)c2c(C#Cc3ccccc3OC)n(C3(C)CC3)c3ncnc(N)c23)cc1 [Example 113, 4-amino-N-(4-(methoxymethyl)phenyl)-6-((2-methoxyphenyl)ethynyl)-7-(1-methylcyclopropyl)-7H-pyrrolo[2,3-d]pyrimidine-5-carboxamide] | 79
10 | CCn1nccc1C#Cc1c(C(=O)Nc2ccc(COC)cc2)c2c(N)ncnc2n1C1(C)CC1 [Example 114, 4-amino-6-((1-ethyl-1H-pyrazol-5-yl)ethynyl)-N-(4-(methoxymethyl)phenyl)-7-(1-methylcyclopropyl)-7H-pyrrolo[2,3-d]pyrimidine-5-carboxamide] | 55
11 | CCOc1c(C(=O)Nc2ccc(-c3ccco3)cc2)c2c(N)ncnc2n1C1(C)CC1 [Example 116, 4-amino-6-ethoxy-N-(4-(furan-2-yl)phenyl)-7-(1-methylcyclopropyl)-7H-pyrrolo[2,3-d]pyrimidine-5-carboxamide] | 55
12 | CCn1cc(C#Cc2c(C(=O)Nc3ccc(COC)cc3)c3c(N)ncnc3n2C2(C)CC2)cn1 [Example 118, 4-amino-6-((1-ethyl-1H-pyrazol-4-yl)ethynyl)-N-(4-(methoxymethyl)phenyl)-7-(1-methylcyclopropyl)-7H-pyrrolo[2,3-d]pyrimidine-5-carboxamide] | 73
13 | COCc1ccc(NC(=O)c2c(C#Cc3cccs3)n(C3(C)CC3)c3ncnc(N)c23)cc1 [Example 119, 4-amino-N-(4-(methoxymethyl)phenyl)-7-(1-methylcyclopropyl)-6-(thiophen-2-ylethynyl)-7H-pyrrolo[2,3-d]pyrimidine-5-carboxamide] | 70
14 | COCc1ccc(NC(=O)c2c(C#Cc3ccc(Cl)nc3)n(C3(C)CC3)c3ncnc(N)c23)cc1 [Example 120, 4-amino-6-((6-chloropyridin-3-yl)ethynyl)-N-(4-(methoxymethyl)phenyl)-7-(1-methylcyclopropyl)-7H-pyrrolo[2,3-d]pyrimidine-5-carboxamide] | 72
15 | COCc1ccc(NC(=O)c2c(C#Cc3c[nH]c4ccccc34)n(C3(C)CC3)c3ncnc(N)c23)cc1 [Example 121, 6-((1H-indol-3-yl)ethynyl)-4-amino-N-(4-(methoxymethyl)phenyl)-7-(1-methylcyclopropyl)-7H-pyrrolo[2,3-d]pyrimidine-5-carboxamide] | 74
16 | COCc1ccc(NC(=O)c2c(C#Cc3cccc(NCc4ccncc4)c3)n(C3(C)CC3)c3ncnc(N)c23)cc1 [Example 122, 4-amino-N-(4-(methoxymethyl)phenyl)-7-(1-methylcyclopropyl)-6-((3-((pyridin-4-ylmethyl)amino)phenyl)ethynyl)-7H-pyrrolo[2,3-d]pyrimidine-5-carboxamide] | 62
17 | COCc1ccc(NC(=O)c2c(C#CCC3(O)COC3)n(C3(C)CC3)c3ncnc(N)c23)cc1 [Example 125, 4-amino-6-(3-(3-hydroxyoxetan-3-yl)prop-1-yn-1-yl)-N-(4-(methoxymethyl)phenyl)-7-(1-methylcyclopropyl)-7H-pyrrolo[2,3-d]pyrimidine-5-carboxamide] | 74
18 | COCc1ccc(NC(=O)c2c(C#Cc3csc(C)n3)n(C3(C)CC3)c3ncnc(N)c23)cc1 [Example 126, 4-amino-N-(4-(methoxymethyl)phenyl)-7-(1-methylcyclopropyl)-6-((2-methylthiazol-4-yl)ethynyl)-7H-pyrrolo[2,3-d]pyrimidine-5-carboxamide] | 69
19 | CCOc1c(C(=O)Nc2ccc(COC)cc2)c2c(N)ncnc2n1C1(C)CC1 [Example 127, 4-amino-6-ethoxy-N-(4-(methoxymethyl)phenyl)-7-(1-methylcyclopropyl)-7H-pyrrolo[2,3-d]pyrimidine-5-carboxamide] | 70
20 | COCc1ccc(NC(=O)c2c(C#Cc3cnc4[nH]ccc4c3)n(C3(C)CC3)c3ncnc(N)c23)cc1 [Example 128, 6-((1H-pyrrolo[2,3-b]pyridin-5-yl)ethynyl)-4-amino-N-(4-(methoxymethyl)phenyl)-7-(1-methylcyclopropyl)-7H-pyrrolo[2,3-d]pyrimidine-5-carboxamide] | 82
21 | COCc1ccc(NC(=O)c2c(C#Cc3ccn[nH]3)n(C3(C)CC3)c3ncnc(N)c23)cc1 [Example 129, 6-((1H-pyrazol-5-yl)ethynyl)-4-amino-N-(4-(methoxymethyl)phenyl)-7-(1-methylcyclopropyl)-7H-pyrrolo[2,3-d]pyrimidine-5-carboxamide] | 54
22 | COCc1ccc(NC(=O)c2c(C#Cc3cccc(F)c3)n(C3(C)CC3)c3ncnc(N)c23)cc1 [Example 130, 4-amino-6-((3-fluorophenyl)ethynyl)-N-(4-(methoxymethyl)phenyl)-7-(1-methylcyclopropyl)-7H-pyrrolo[2,3-d]pyrimidine-5-carboxamide] | 84
23 | COCc1ccc(NC(=O)c2c(C#CC3(O)CCCC3)n(C3(C)CC3)c3ncnc(N)c23)cc1 [Example 131, 4-amino-6-((1-hydroxycyclopentyl)ethynyl)-N-(4-(methoxymethyl)phenyl)-7-(1-methylcyclopropyl)-7H-pyrrolo[2,3-d]pyrimidine-5-carboxamide] | 55
24 | COCc1ccc(NC(=O)c2c(C#CCN3CCN(C)CC3)n(C3(C)CC3)c3ncnc(N)c23)cc1 [Example 132, 4-amino-N-(4-(methoxymethyl)phenyl)-7-(1-methylcyclopropyl)-6-(3-(4-methylpiperazin-1-yl)prop-1-yn-1-yl)-7H-pyrrolo[2,3-d]pyrimidine-5-carboxamide] | 77
25 | COCc1ccc(NC(=O)c2c(SC)n(C3(C)CC3)c3ncnc(N)c23)cc1 [Example 133, 4-amino-N-(4-methoxymethyl)phenyl-7-(1-methylcyclopropyl)-6-(methylthio)-7H-pyrrolo[2,3-d]pyrimidine-5-carboxamide] | 70
26 | COCc1ccc(NC(=O)c2c(C#CC(C)(C)N)n(C3(C)CC3)c3ncnc(N)c23)cc1 [Example 134, 4-amino-6-(3-amino-3-methylbut-1-yn-1-yl)-N-(4-(methoxymethyl)phenyl)-7-(1-methylcyclopropyl)-7H-pyrrolo[2,3-d]pyrimidine-5-carboxamide] | 79
27 | COCc1ccc(NC(=O)c2c(OCC3CCCO3)n(C3(C)CC3)c3ncnc(N)c23)cc1 (stereo not drawn) [Example 135, 4-amino-N-(4-(methoxymethyl)phenyl)-7-(1-methylcyclopropyl)-6-((tetrahydrofuran-2-yl)methoxy)-7H-pyrrolo[2,3-d]pyrimidine-5-carboxamide] | 67
28 | COCc1ccc(NC(=O)c2c(OCCN3CCCC3=O)n(C3(C)CC3)c3ncnc(N)c23)cc1 [Example 136, 4-amino-N-(4-(methoxymethyl)phenyl)-7-(1-methylcyclopropyl)-6-(2-(2-oxopyrrolidin-1-yl)ethoxy)-7H-pyrrolo[2,3-d]pyrimidine-5-carboxamide] | 78
29 | COCc1ccc(NC(=O)c2c(OCC(C)(C)OC)n(C3(C)CC3)c3ncnc(N)c23)cc1 [Example 137, 4-amino-6-(2-methoxy-2-methylpropoxy)-N-(4-(methoxymethyl)phenyl)-7-(1-methylcyclopropyl)-7H-pyrrolo[2,3-d]pyrimidine-5-carboxamide] | 53
30 | COCc1ccc(NC(=O)c2c(OCC3CCCC3)n(C3(C)CC3)c3ncnc(N)c23)cc1 [Example 140, 4-amino-6-(cyclopentylmethoxy)-N-(4-(methoxymethyl)phenyl)-7-(1-methylcyclopropyl)-7H-pyrrolo[2,3-d] pyrimidine-5-carboxamide] | 52
